Assay results from patent publication US12606528B2, “Methods and materials for inhibiting NF-kB activity” (University of Pittsburgh - Of the Commonwealth System of …, priority 2019, dated 2026).
Like-named read-outs stand apart in the source and are kept apart here.

How the values were obtained:
NF-κB = NF-κB assay: THP1-NF-κB-LUC cells, LPS-stimulated secreted luciferase; type: cell-based; conditions: read-out: IC50 (NF-κB assay)
Summary of the method: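 THP1-NF-κB-LUC cells (25k/well) were pretreated with compounds for 2 h, then stimulated with LPS (10 ng/mL) for 18 h. Secreted luciferase was measured and normalized to vehicle, and IC50 was fitted from the concentration series.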

TNF release = experiment: TNF assay: TNF release from LPS-stimulated human PBMCs (TNF ELISA); type: cell-based; conditions: PBMC, read-out: IC50 (TNF assay)
Procedure: 25k THP1-NF-κB-LUC cells were dispensed into 384 well plate (per well). Cells were treated with compounds with various concentrations for 2 hours before addition of LPS (10 ng/mL) for 18 hours. Secreted luciferase activity were measured using quant-luc reagents (1 bag of luc reagent dilute to 40 mL, use 10 μL per well). Data were normalized to vehicle control and graphed. Compound IC50 towards inhibiting NF-κB were determined through Prism. Similarly, 10k human PBMCs cells were cultured in 384 well plate (per well). Cells were treated with compounds with various concentrations for 2 hours before addition of LPS (10 ng/ml) for 18 hours, and supernatants were collected and assayed for TNF ELISA. Compound IC50 towards inhibiting TNF release were determined through Prism. • Activity: “+”>10 μM, “++”>1 μM and <10 μM, “+++”>0.1 μM and <1 μM, “++++”<0.1 μM.

[1] = THP1-NF-κB-LUC cells, LPS-stimulated
[2] = LPS-stimulated human PBMCs, TNF ELISA
[3] = THP1-NF-κB-LUC cells, compounds 2 hours before LPS (10 ng/mL) for 18 hours, secreted luciferase
[4] = human PBMCs, compounds 2 hours before LPS (10 ng/ml) for 18 hours, supernatant TNF ELISA

Row | Structure (SMILES) | IC50 (NF-κB; [1]) [nM] | IC50 (TNF release; [2]) [µM] | also measured
1 | CN1CCN(C(=O)c2ccc3nc(C(F)(F)F)c(-c4ccc(F)cc4)nc3c2)CC1 [BC19103] | > 10000 | > 10 | 
2 | CN1CCN(C(=O)c2ccc3nc(C(F)(F)F)c(-c4ccccc4)nc3c2)CC1 [BC19104] | > 10000 | > 10 | 
3 | CN1CCN(C(=O)c2ccc3nc(C(F)(F)F)c(-c4cccnc4)nc3c2)CC1 [BC19105] | > 10000 | > 10 | 
4 | CN1CCN(C(=O)c2ccc3nc(C(F)(F)F)c(-c4ccccc4F)nc3c2)CC1 [BC19106] | > 10000 | > 10 | 
5 | CN1CCN(C(=O)c2ccc3nc(C(F)(F)F)c(-c4ccc(F)cc4F)nc3c2)CC1 [BC19107] | > 10000 | > 10 | 
6 | CN1CCN(C(=O)c2ccc3nc(C(F)(F)F)c(-c4cc(F)cc(F)c4)nc3c2)CC1 [BC19108] | > 10000 | > 10 | 
7 | CN1CCN(C(=O)c2ccc3nc(-c4ccc(F)cc4)c(C(F)(F)F)nc3c2)CC1 [BC19110] | > 10000 | > 10 | 
8 | Fc1ccc(-c2nc3cc(-c4nnc[nH]4)ccc3nc2C(F)(F)F)cc1 [BC19111] | > 10000 | > 10 | 
9 | Cn1nnnc1-c1ccc2nc(C(F)(F)F)c(-c3ccc(F)cc3)nc2c1 [BC19112] | > 10000 | > 10 | 
10 | Fc1ccc(-c2nc3cc(-c4nnn[nH]4)ccc3nc2C(F)(F)F)cc1 [BC19113] | > 10000 | > 10 | 
11 | Cc1cnc(-c2ccc3nc(C(F)(F)F)c(-c4ccc(F)cc4)nc3c2)o1 [BC19114] | > 10000 | > 10 | 
12 | Fc1ccc(-c2nc3cc(-c4ncco4)ccc3nc2C(F)(F)F)cc1 [BC19115] | > 10000 | > 10 | 
13 | Fc1ccc(-c2nc3cc(-c4nnco4)ccc3nc2C(F)(F)F)cc1 [BC19116] | > 10000 | > 10 | 
14 | NC(=O)c1ccc2nc(-c3ccc(F)cc3)c(C(F)(F)F)nc2c1 [BC19117] | > 10000 | > 10 | 
15 | O=C(O)c1ccc2nc(-c3ccc(F)cc3)c(-c3ccc(F)cc3)nc2c1 [BC19118] | 1000 to 10000 | > 10 | 
16 | O=c1c(S(=O)(=O)c2ccc(F)c(F)c2)c[nH]c2cccnc12 [BC19121] |  |  | IC50 (NF-κB; [3]): > 10000 nM; IC50 (TNF release; [4]): > 10 µM
17 | O=c1c(S(=O)(=O)c2ccc(F)c(F)c2)c[nH]c2ccc(Cl)nc12 [BC19122] |  |  | IC50 (NF-κB; [3]): > 10000 nM; IC50 (TNF release; [4]): > 10 µM
18 | O=c1c(S(=O)(=O)c2ccc(F)cc2)c[nH]c2ccncc12 [BC19123] |  |  | IC50 (NF-κB; [3]): 1000 to 10000 nM; IC50 (TNF release; [4]): > 10 µM
19 | O=c1c(S(=O)(=O)c2ccc(F)cc2)c[nH]c2cccnc12 [BC19124] |  |  | IC50 (NF-κB; [3]): > 10000 nM; IC50 (TNF release; [4]): > 10 µM

Row | Structure (SMILES) | IC50 (NF-κB; [1]) [nM] | IC50 (TNF release; [2]) [µM] | also measured
20 | Cc1ccc(-c2nc(S(=O)(=O)c3ccc(Cl)cc3)c(S(C)(=O)=O)o2)cc1 [BC19126] | 1000 to 10000 | 0.1 to 1 | 
21 | Cc1ccc(-c2nc(S(=O)(=O)c3ccc(Br)cc3)c(S(C)(=O)=O)o2)cc1 [BC19128] | 1000 to 10000 | 0.1 to 1 | 
22 | O=C1COc2cc(S(=O)(=O)Nc3ccc(Cl)cc3)c(Cl)cc2N1 [BC19133] |  |  | IC50 (NF-κB; [3]): < 100 nM; IC50 (TNF release; [4]): > 10 µM
23 | CCOc1ccc(NS(=O)(=O)c2cc3c(cc2Br)NC(=O)CO3)cc1 [BC19135] |  |  | IC50 (NF-κB; [3]): > 10000 nM; IC50 (TNF release; [4]): > 10 µM
24 | CC(C)c1ccc(NS(=O)(=O)c2cc3c(cc2Cl)NC(=O)CO3)cc1 [BC19136] |  |  | IC50 (NF-κB; [3]): > 10000 nM; IC50 (TNF release; [4]): > 10 µM
25 | COc1ccc(NS(=O)(=O)c2cc3c(cc2Br)NC(=O)CO3)cc1 [BC19137] |  |  | IC50 (NF-κB; [3]): 100 to 1000 nM; IC50 (TNF release; [4]): > 10 µM
26 | CCc1ccc(NS(=O)(=O)c2cc3c(cc2Br)NC(=O)CO3)cc1 [BC19138] |  |  | IC50 (NF-κB; [3]): < 100 nM; IC50 (TNF release; [4]): > 10 µM
27 | Cc1cnc(-c2ccc3nc(-c4ccc(F)cc4)c(-c4ccc(F)cc4)nc3c2)o1 [BC19140] | 1000 to 10000 | > 10 | 
28 | CN1CCN(C(=O)c2ccc3nc(C(F)(F)F)c(-c4cccc(F)c4)nc3c2)CC1 [BC19142] | > 10000 | > 10 | 
29 | Fc1ccc(-c2nc3ccc(-c4nnn[nH]4)cc3nc2-c2ccc(F)cc2)cc1 [BC19144] | 1000 to 10000 | > 10 | 
30 | Fc1ccc(-c2nc3ccc(-c4ncco4)cc3nc2-c2ccc(F)cc2)cc1 [BC19145] | 1000 to 10000 | > 10 | 
31 | CN1CCN(C(=O)c2ccc3nc(C(F)(F)F)c(-c4ccncc4)nc3c2)CC1 [BC19149] | > 10000 | > 10 | 
32 | Cc1nnc(-c2ccc3nc(C(F)(F)F)c(-c4ccc(F)cc4)nc3c2)o1 [BC19151] | > 10000 | > 10 | 
33 | Cn1nnnc1-c1ccc2nc(-c3ccc(F)cc3)c(C(F)(F)F)nc2c1 [BC19152] | > 10000 | > 10 | 
34 | Fc1ccc(-c2nc3ccc(-c4nnn[nH]4)cc3nc2C(F)(F)F)cc1 [BC19153] | > 10000 | > 10 | 
35 | O=C(O)c1ccc2nc(-c3ccc(F)cc3)c(-c3cccs3)nc2c1 [BC19156] |  |  | IC50 (NF-κB): 1000 to 10000 nM; IC50 (TNF release; Homo sapiens): > 10 µM
36 | N#Cc1ccc2nc(-c3cccs3)c(-c3ccc(F)cc3)nc2c1 [BC19157] | > 10000 | > 10 | 
37 | N#Cc1ccc2nc(-c3ccc(F)cc3)c(C(F)(F)F)nc2c1 [BC19158] | > 10000 | > 10 | 

Continued, in another order:

Row | IC50 (NF-κB; [1]) [nM] | IC50 (TNF release; [2]) [µM] | Structure (SMILES) | also measured
38 | 100 to 1000 | > 10 | CN1CCN(C(=O)c2ccc3nc(-c4cccs4)c(-c4ccc(F)cc4)nc3c2)CC1 [BC19109] | 
39 | < 100 | < 0.1 | CNC(=O)c1ccc2nc(-c3cccs3)c(-c3ccc(F)cc3)nc2c1 [BC19119] | 
40 | < 100 | < 0.1 | C#CCNC(=O)c1ccc2nc(-c3cccs3)c(-c3ccc(F)cc3)nc2c1 [BC19120] | 
41 | < 100 | < 0.1 | CCS(=O)(=O)c1oc(-c2ccc(C)cc2)nc1S(=O)(=O)c1ccc(F)cc1 [BC19125] | 
42 | < 100 | 1 to 10 | CCS(=O)(=O)c1oc(-c2ccc(C)cc2)nc1S(=O)(=O)c1ccc(Cl)cc1 [BC19127] | 
43 | < 100 | 0.1 to 1 | CCS(=O)(=O)c1oc(-c2ccc(C)cc2)nc1S(=O)(=O)c1ccc(Br)cc1 [BC19129] | 
44 | 100 to 1000 | 0.1 to 1 | CCCS(=O)(=O)c1oc(-c2ccc(C)cc2)nc1S(=O)(=O)c1ccc(Br)cc1 [BC19130] | 
45 | < 100 | > 10 | Cn1nnnc1-c1ccc2nc(-c3ccc(F)cc3)c(-c3ccc(F)cc3)nc2c1 [BC19139] | 
46 | 100 to 1000 | > 10 | Cc1nnc(-c2ccc3nc(-c4ccc(F)cc4)c(-c4ccc(F)cc4)nc3c2)o1 [BC19141] | 
47 | 100 to 1000 | > 10 | Fc1ccc(-c2nc3ccc(-c4nnc[nH]4)cc3nc2-c2ccc(F)cc2)cc1 [BC19143] | 
48 | < 100 | 0.1 to 1 | Cc1ccc(-c2nc(S(=O)(=O)c3ccc(C)cc3)c(S(=O)(=O)C(C)C)o2)cc1 [BC19146] | 
49 | 100 to 1000 | 0.1 to 1 | Cc1ccc(-c2nc(S(=O)(=O)c3ccc(F)cc3)c(S(C)(=O)=O)o2)cc1 [BC19147] | 
50 | < 100 | > 10 | Cn1cc(-c2ccc3nc(-c4ccc(F)cc4)c(-c4ccc(F)cc4)nc3c2)nn1 [BC19148] | 
51 | 100 to 1000 | 1 to 10 | Fc1ccc(-c2nc3ccc(-c4c[nH]nn4)cc3nc2-c2ccc(F)cc2)cc1 [BC19150] | 
52 | < 100 | > 10 | C#CCNC(=O)c1ccc2nc(-c3ccc(F)cc3)c(-c3ccc(F)cc3)nc2c1 [BC19154] | 
53 | 100 to 1000 | 1 to 10 | NC(=O)c1ccc2nc(-c3cccs3)c(-c3ccc(F)cc3)nc2c1 [BC19155] | 
